The results in this text go back to patent US20120270890A1, “Methods of Pancreatic Beta Cell Regeneration” (priority 2011, published 2012).

Structures are written as SMILES.

What all share (type): in vivo, mice
One series relates to β-cells. Briefly: β-cell elimination and β-cell mass after alloxan injection, with or without PDL. The procedure: (§1) Six- to ten-week old C57/B6 or ICR (Institute of Cancer Research) mice (Harlan Sprague Dawley, Inc.; Placentia, Calif., USA) were injected intravenously with Alloxan (Sigma Aldrich, St. Louis, Mo., USA) at 90 mg/kg. PDL was conducted essentially as described with the following minor modifications. Approximately 50% of the pancreas (the head) remained proximal to the ligation. For the mice receiving PDL plus A, PDL was performed 30 minutes after alloxan injection. Only mice with a blood sugar greater than 500 mg/dl (checked 48 hours after alloxan injection) were selected for experiments. Those mice were injected subcutaneously once daily with insulin glargine (Sanofi-Aventis, Paris, France).
Quantitation of β-cell Mass—β-cell mass was calculated as the relative β-cell area multiplied by pancreatic weight. For the quantitative analysis of insulin (+) cell area, we studied sections spaced 100 lm apart from each other from the tail of the pancreas per mouse. These sections were incubated with antisera to insulin (1:200, rabbit, Santa Cruz Biotechnology, Santa Cruz, Calif., USA) and the bound antibody was visualized by DAB (3,30-Diaminobenzidine) (Vector Laboratories, Burlingame, Calif., USA). The nuclei were stained by Hematoxylin (Surgipath, Richmond, Ill., USA). All slides were scanned and analyzed by using the Aperio ScanScope XT system (version 10, Aperio Technologies, Vista, Calif.).

The test system of series [1] is insulin-positive and glucagon-positive cells of the pancreas. Description: Immunohistochemical marker quantification in pancreas after PDL plus alloxan. The procedure:
as §1
Immunohistochemical Staining—Tissue was fixed in 4% formaldehyde for 6 hours at 4° C., washed in PBS (Phosphate buffered saline), followed by overnight in 30% sucrose at 4° C., then embedded in OCT (Optimal Cutting Temperature) compound and frozen at […]. Cryosections of 5 um thickness were incubated with antisera specific for insulin (1/200, guinea pig, USBIO, Swampscott, Mass., USA), insulin (1/200, rabbit, Santa Cruz Biotechnology, Santa Cruz, Calif., USA), glucagon (1/2,000, mouse, Sigma-Aldrich, St. Louis, Mo., USA), glucagon (1/50, rabbit, Abcam, Cambridge, Mass., USA), cytokeratin (Wide Spectrum Screening; 1/500, rabbit, DakoCytomation, Glostrup, Denmark), somatostatin (1/200, goat, Santa Cruz Biotechnology, Santa Cruz, Calif., USA), KI67 (1/50, mouse, BD Pharmingen, San Diego, Calif., USA), MafA (1/100, rabbit, Bethyl Laboratories, Montgomery, Tex., USA), MafB (1/100, rabbit, Bethyl Laboratories, Montgomery, Tex., USA), PDX1 (1/2,000, goat, Abcam, Cambridge, Mass., USA), Nkx6.1 (1/1,000, mouse, Beta Cell Biology Consortium, Nashville, Tenn., USA), 5-bromodeoxyuridine (BrdU; mouse, GE healthcare, Piscataway, N.J., USA), and C-peptide (1/100, rabbit, Cell Signaling, Danvers, Mass., USA). Secondary antibodies for detection of guinea pig, rabbit, goat, or mouse antibodies were labeled with: Alexa Fluor 488 (Invitrogen, Carlsbad, Calif., USA), Rhodamine Red (Jackson ImmunoResearch Laboratories, West Grove, Pa., USA), Cy5 (Jackson ImmunoResearch Laboratories, West Grove, Pa., USA). Nuclei were visualized with DAPI (40,6-diamidino-2-phenylindole) (Sigma Aldrich, St. Louis, Mo., USA).
Image and Statistical Analysis—All images were acquired by confocal scanning microscopy (Radiance 2100/AGR-3Q BioRad Multi-photon Laser Point Scanning Confocal Microscope). Images were processed with Image J software. The colocalization patterns in FIG. 4, FIGS. 18 and 19 were determined by the colocalization threshold algorithm in WCIF image J. Confocal z stacks were captured at 0.5 lm increments. Three dimensional reconstructions and measurements were performed by using Volocity software (version 5.3). Statistical significance of cell-specific changes in controls versus experimental groups was calculated by an unpaired Student's t-test. We considered p-values below 0.05 as statistically significant. For all statistical analysis, Graphpad Prism 5 was used. All results are expressed as mean±SD.

The nature of series [2]: Mortality and glycemia following PDL plus alloxan. The procedure: as §1
The initial insulin dose was 1 unit per mouse (around […] in weight). If hyperglycemia was not controlled at that dose, it was raised gradually until diabetes was controlled. Even with careful management of diabetes, the mortality following PDL plus alloxan was high, around 50%.

Where [3] appears, read: 14 days following alloxan plus PDL.
[4] abbreviates: seven days following PDL plus alloxan.

Turning to `O=C1NC(=O)C(=O)C(=O)N1` [alloxan], in the series with β-cells (after alloxan), the “residual β-cells, of pre-existing β-cells” value is recorded as “less than 1%”. The “pre-existing β-cells eliminated” value in the series with β-cells (alloxan injection, by 3 days after injection) stood at 99%. For the same molecule, in the series with β-cells (alloxan treatment alone, two weeks later), the β-cell regeneration entry is “no evidence of β-cell regeneration”. Moreover, the “change in β-cell mass” value in the series on β-cells (alloxan, between 3 and 14 days after injection) is listed as “no change in the β-cell mass”. Moreover, in the series with β-cells (following PDL plus alloxan), the β-cells eliminated entry is listed as “greater than 99%”. Also, the “insulin-positive cells coexpressing glucagon” value in series [1] (1 week following PDL plus alloxan) is given as 58%; in series [1] (14 days following PDL plus alloxan), 21%. Further, the “frequency of replicating insulin-positive cells (Ki67)” value in series [1] (3 days following alloxan plus PDL) is given as 0.98%; in series [1] (day 7 following PDL plus alloxan), 6%; in series [1] (day 14 following PDL plus alloxan), “decreased to basal levels”. Also, the “replication rate of glucagon-positive cells” value in series [1] (7 days following PDL plus alloxan) was 5%. Besides, the “β-cells expressing MafA” value in series [1] (setting [3]) is 63%. The “β-cells expressing MafB” value in series [1] (setting [3]) came to 22%. The “α-cells expressing PDX1” value in series [1] (PDL plus alloxan, within 1 week) came out at 11%. Also, in series [1] (setting [4]), the “insulin positive cells expressing MafA” value was found to be 26%. Also, the “insulin positive cells expressing MafB” value in series [1] (setting [4]) is listed as 64%. In series [2] (PDL plus alloxan), the normoglycemia result is recorded as “did not achieve normoglycemia”. The mortality result in series [2] (following PDL plus alloxan, with insulin glargine management of diabetes) is “around 50%”.
